Source: the supplement of paper PMC11208160

Assay: recombinant UMI read abundance after kanamycin selection (control-corrected) (log10(CPM+1)); higher = more efficient recombination; extreme values may be limits of the assay; sequences stand for … in AGTGCAGAGAAAATCGGCCAGTTTTCTCTGCCTGCAGTCCGCATGCCGTGGGACCCCTTGGGTTCTAACCTGTTGCCTAGATTTATGCAGCGGACTGCCTTTCTCCCAAAGTGATAAACCGG…AGGTTGGTTTCACT; site = the 11-nt donor
Outline: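 Reported values are log10(CPM+1) from a pooled Escherichia coli screen of donor and donor-binding-loop pairs for the IS621 bridge recombinase. Selection used IPTG (0.07 mM) plus kanamycin, against unselected plating, each in two replicates. Recombinant UMIs were amplified across the donor–target junction, sequenced, converted to CPM, averaged over replicates and scaled by control-derived factors.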
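Further: IS621 bridge recombinase in Escherichia coli cells against a fixed T5 target plasmid.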

Sequence	recombinant UMI read abundance (log10)
CACTGGGCATGGACCGGTTTTCCCGGTAATCCGTATTTGGA (site CACTGGGCTTC)	1.12
CACTGGGCATGGACCGGTTTTCCCGGTAATCCGTATTTGGA (site CACTTGGCTTC)	0.0159
CACTTAACATGGACCGGTTTTCCCGGTAATCCGTATTTGCC (site CACTTAACTGG)	0.774
CACTTCCCATGGACCGGTTTTCCCGGTAATCCGTATTTGCT (site CAATTCCCTAG)	0
CACTTCCCATGGACCGGTTTTCCCGGTAATCCGTATTTGCT (site CACTTCCCTAG)	0.617
CACTTCCCATGGACCGGTTTTCCCGGTAATCCGTATTTGCT (site CAGTTCCCTAG)	0.521
CACTTCCCATGGACCGGTTTTCCCGGTAATCCGTATTTGCT (site CATTTCCCTAG)	0
CACTTCTCATGGACCGGTTTTCCCGGTAATCCGTATTTGGG (site CACTTCTCTCC)	0.00463
CACTTCTCATGGACCGGTTTTCCCGGTAATCCGTATTTGGG (site CCCTTCTCTCC)	0.00683
CACTTCTCATGGACCGGTTTTCCCGGTAATCCGTATTTGGG (site CGCTTCTCTCC)	0
CACTTCTCATGGACCGGTTTTCCCGGTAATCCGTATTTGGG (site CTCTTCTCTCC)	0
CACTTGACATGGACCGGTTTTCCCGGTAATCCGTATTTGCT (site AACTTGACTAG)	0
CACTTGACATGGACCGGTTTTCCCGGTAATCCGTATTTGCT (site CACTTGACTAG)	2.31
CACTTGACATGGACCGGTTTTCCCGGTAATCCGTATTTGCT (site GACTTGACTAG)	0
CACTTGACATGGACCGGTTTTCCCGGTAATCCGTATTTGCT (site TACTTGACTAG)	0.365
CAGAAGCCATGGACCGGTTTTCCCGGTAATCCGTATTTGGT (site CAGAAGCCTAC)	0.535
CAGAAGCCATGGACCGGTTTTCCCGGTAATCCGTATTTGTT (site CAGAAGCCTAA)	1.14
CAGAAGCCATGGACCGGTTTTCCCGGTAATCCGTATTTGTT (site CGGAATCCTAA)	0
CAGAATACATGGACCGGTTTTCCCGGTAATCCGTATTTGTT (site CAGAATACTAA)	2.12

Sequence	recombinant UMI read abundance (log10)
CAGAATACATGGACCGGTTTTCCCGGTAATCCGTATTTGTT (site CGGAATCCTAA)	0
CAGAATTCATGGACCGGTTTTCCCGGTAATCCGTATTTGGA (site CAGAATTCTTC)	3.34
CAGATACCATGGACCGGTTTTCCCGGTAATCCGTATTTGGA (site CAGATACCTTC)	0.0326
CAGCACGCATGGACCGGTTTTCCCGGTAATCCGTATTTGCA (site CAGCACGCTTG)	2.58
CAGCTCACATGGACCGGTTTTCCCGGTAATCCGTATTTGAT (site AAGCTCACTAT)	0.444
CAGCTCACATGGACCGGTTTTCCCGGTAATCCGTATTTGAT (site CAGCTCACTAT)	2.31
CAGCTCACATGGACCGGTTTTCCCGGTAATCCGTATTTGAT (site GAGCTCACTAT)	0.00621
CAGCTCACATGGACCGGTTTTCCCGGTAATCCGTATTTGAT (site TAGCTCACTAT)	0.404
CAGCTCGCATGGACCGGTTTTCCCGGTAATCCGTATTTGAC (site CAGCTCGCTGT)	2.55
CAGGAAACATGGACCGGTTTTCCCGGTAATCCGTATTTGCA (site CAGGAAACTTG)	1.79
CAGGAAACATGGACCGGTTTTCCCGGTAATCCGTATTTGCA (site CCGGAAACTTG)	0
CAGGAAACATGGACCGGTTTTCCCGGTAATCCGTATTTGCA (site CGGGAAACTTG)	0
CAGGAAACATGGACCGGTTTTCCCGGTAATCCGTATTTGCA (site CTGGAAACTTG)	2.49
CAGGAATCATGGACCGGTTTTCCCGGTAATCCGTATTTGCA (site CAGGAATCTTG)	3.17
CAGGAATCATGGACCGGTTTTCCCGGTAATCCGTATTTGCG (site AAGGAATCTCG)	1.51
CAGGAATCATGGACCGGTTTTCCCGGTAATCCGTATTTGCG (site CAGGAATCTCG)	3.26
CAGGAATCATGGACCGGTTTTCCCGGTAATCCGTATTTGCG (site GAGGAATCTCG)	0.395
CAGGAATCATGGACCGGTTTTCCCGGTAATCCGTATTTGCG (site TAGGAATCTCG)	2.69
CAGGACTCATGGACCGGTTTTCCCGGTAATCCGTATTTGTT (site CAGGACTCTAA)	2.96
